30 compounds from patent US20110077248A1, “IMIDAZOPYRIDINE AND RELATED ANALOGS AS SIRTUIN MODULATORS” (Sirtris Pharmaceuticals, Inc., priority 2008, published 2011) can be followed below.

In this test the target is T1, SIRT1 (Homo sapiens, UniProt Q96EB6).
T1 construct: His-tag (N); made in house; host or cells: E. coli BL21(DE3), T7-promoter vector
T1 sequence (Q96EB6 1-747): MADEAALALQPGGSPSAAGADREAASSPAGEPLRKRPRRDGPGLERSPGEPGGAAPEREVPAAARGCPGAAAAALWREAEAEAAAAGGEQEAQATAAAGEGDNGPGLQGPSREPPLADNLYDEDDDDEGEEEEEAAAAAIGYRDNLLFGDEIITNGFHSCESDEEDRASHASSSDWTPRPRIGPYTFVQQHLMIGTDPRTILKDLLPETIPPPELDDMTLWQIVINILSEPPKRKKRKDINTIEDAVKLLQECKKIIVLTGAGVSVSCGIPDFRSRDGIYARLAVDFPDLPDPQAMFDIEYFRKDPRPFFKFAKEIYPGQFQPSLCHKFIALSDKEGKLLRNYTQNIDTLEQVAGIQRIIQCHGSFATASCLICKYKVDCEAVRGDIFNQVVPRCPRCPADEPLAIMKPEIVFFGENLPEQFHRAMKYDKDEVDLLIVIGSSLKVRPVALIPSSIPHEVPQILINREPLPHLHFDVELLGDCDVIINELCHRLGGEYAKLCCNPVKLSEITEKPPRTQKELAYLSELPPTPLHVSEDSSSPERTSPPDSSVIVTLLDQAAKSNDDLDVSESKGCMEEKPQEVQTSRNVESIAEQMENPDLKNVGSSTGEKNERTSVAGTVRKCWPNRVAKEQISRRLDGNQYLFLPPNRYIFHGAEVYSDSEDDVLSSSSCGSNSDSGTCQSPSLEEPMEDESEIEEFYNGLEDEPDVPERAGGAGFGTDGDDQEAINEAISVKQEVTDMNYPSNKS
Briefly: Mass spectrometry based assay for modulators of SIRT1 activity (deacetylation of p53-based acetylated peptide). It counts as biochemical. The note with it: for EC1.5: concentration of test compound that results in 150% activation of SIRT1, 0.5 μM peptide substrate, 120 μM βNAD+, 10 nM SIRT1, 25 min, 25° C.; for Emax: percent maximum fold activation of SIRT1. From the text:
A mass spectrometry based assay was used to identify modulators of SIRT1 activity. The mass spectrometry based assay utilizes a peptide having 20 amino acid residues as follows: Ac-EE-K(biotin)-GQSTSSHSK(Ac)NleSTEG-K(5TMRi)-EE-NH2 (SEQ ID NO: 1) wherein K(Ac) is an acetylated lysine residue and Nle is a norleucine. The peptide is labeled with the fluorophore 5TMR (excitation 540 nm/emission 580 nm) at the C-terminus. The sequence of the peptide substrate is based on p53 with several modifications. In addition, the methionine residue naturally present in the sequence was replaced with the norleucine because the methionine may be susceptible to oxidation during synthesis and purification.
The mass spectrometry assay is conducted as follows: 0.5 μM peptide substrate and 120 μM βNAD+ is incubated with 10 nM SIRT1 for 25 minutes at 25° C. in a reaction buffer (50 mM Tris-acetate pH 8, 137 mM NaCl, 2.7 mM KCl, 1 mM MgCl2, 5 mM DTT, 0.05% BSA). Test compounds may be added to the reaction as described above. The SirT1 gene is cloned into a T7-promoter containing vector and transformed into BL21(DE3). After the 25 minute incubation with SIRT1, 10 μL of 10% formic acid is added to stop the reaction. Reactions are sealed and frozen for later mass spec analysis. Determination of the mass of the substrate peptide allows for precise determination of the degree of acetylation (i.e. starting material) as compared to deacetylated peptide (product).
A control for inhibition of sirtuin activity is conducted by adding 1 μL of 500 mM nicotinamide as a negative control at the start of the reaction (e.g., permits determination of maximum sirtuin inhibition). A control for activation of sirtuin activity is conducted using 10 nM of sirtuin protein, with 1 μL of DMSO in place of compound, to determinine the amount of deacetylation of the substrate at a given timepoint within the linear range of the assay. This timepoint is the same as that used for test compounds and, within the linear range, the endpoint represents a change in velocity.
For the above assay, SIRT1 protein was expressed and purified as follows. The SirT1 gene was cloned into a T7-promoter containing vector and transformed into BL21(DE3). The protein was expressed by induction with 1 mM IPTG as an N-terminal His-tag fusion protein at 18° C. overnight and harvested at 30,000×g. Cells were lysed with lysozyme in lysis buffer (50 mM Tris-HCl, 2 mM Tris[2-carboxyethyl]phosphine (TCEP), 10 μM ZnCl2, 200 mM NaCl) and further treated with sonication for 10 min for complete lysis. The protein was purified over a Ni-NTA column (Amersham) and fractions containing pure protein were pooled, concentrated and run over a sizing column (Sephadex S200 26/60 global). The peak containing soluble protein was collected and run on an Ion-exchange column (MonoQ). Gradient elution (200 mM-500 mM NaCl) yielded pure protein. This protein was concentrated and dialyzed against dialysis buffer (20 mM Tris-HCl, 2 mM TCEP) overnight. The protein was aliquoted and frozen at −80° C. until further use.
Sirtuin modulating compounds that activated SIRT1 were identified using the assay described above and are shown below in Table 1. The EC1.5 values represent the concentration of test compounds that result in 150% activation of SIRT1. The EC1.5 values for the activating compounds are represented by A (EC1.5<1.0 uM), B (EC1.5 1-25 uM), C (EC1.5>25 uM). The percent maximum fold activation is represented by A (Fold activation >200%) or B (Fold Activation <200%). “NT” indicates the compound was not tested in a particular assay.

A word on the Emax: it is the maximal effect, on the per cent scale that the assay sets. In the case of `O=C(Nc1nccs1)c1cccn2nc(-c3ccc(OCC(O)CO)cc3C(F)F)nc12` (stereo in doubt) [Compound 249, (R)-2-(2-(difluoromethyl)-4-(2,3-dihydroxypropoxy)phenyl)-N-(thiazol-2-yl)-[1,2,4]triazolo[1,5-a]pyridine-8-carboxamide], the EC1.5 result is on record as “C (EC1.5>25 uM)” and the Emax was less than 200%.

Regarding `O=C(Nc1cccn2cc(-c3ccccc3)nc12)c1cscn1` [Compound 101], the EC1.5 result was “B (EC1.5 1-25 uM)” and the Emax is less than 200%.

On to `O=C(Nc1cccn2cc(-c3ccccc3)nc12)c1cnccn1` [Compound 102], for which the EC1.5 result is given as “C (EC1.5>25 uM)” and the Emax is less than 200%.

Take `O=C(Nc1cccn2cc(-c3ccccc3)nc12)C1CCNCC1` [Compound 103]: the EC1.5 entry is recorded as “C (EC1.5>25 uM)” and the Emax is less than 200%.

Turning to `O=C(Nc1cccn2cc(-c3cccc(OC(F)(F)F)c3)nc12)c1cscn1` [Compound 104], the EC1.5 entry is on record as “C (EC1.5>25 uM)” and the Emax is less than 200%.

For the compound `O=C(Nc1cccn2cc(-c3cccc(OC(F)(F)F)c3)nc12)c1cnccn1` [Compound 105], the EC1.5 entry was “C (EC1.5>25 uM)” and the Emax is less than 200%.

Regarding `O=C(Nc1nccs1)c1cccn2cc(-c3ccccc3)nc12` [Compound 106], the EC1.5 entry is recorded as “B (EC1.5 1-25 uM)” and the Emax was less than 200%.

For the compound `Cc1csc(NC(=O)c2cccn3cc(-c4ccccc4)nc23)n1` [Compound 107], the EC1.5 result is reported as “B (EC1.5 1-25 uM)” and the Emax was greater than 200%.

Regarding `O=C(Nc1ccccc1)c1cccn2cc(-c3ccccc3)nc12` [Compound 108], the EC1.5 entry is given as “C (EC1.5>25 uM)” and the Emax is less than 200%.

Consider `O=C(Nc1cnccn1)c1cccn2cc(-c3ccccc3)nc12` [Compound 109], for which the EC1.5 result was “B (EC1.5 1-25 uM)” and the Emax is less than 200%.

Turning to `O=C(NC1CCCC1)c1cccn2cc(-c3ccccc3)nc12` [Compound 110], the EC1.5 entry was “C (EC1.5>25 uM)” and the Emax is less than 200%.

Consider `O=C(Nc1cccn2cc(-c3cccc(C(F)(F)F)c3)nc12)c1cnccn1` [Compound 111], for which the EC1.5 result was “B (EC1.5 1-25 uM)” and the Emax was less than 200%.

As for `O=C(Nc1nccs1)c1cccn2cc(-c3cccc(C(F)(F)F)c3)nc12` [Compound 112], the EC1.5 result is “C (EC1.5>25 uM)” and the maximal response (Emax) is less than 200%.

`O=C(Nc1ccccc1)c1cccn2cc(-c3cccc(C(F)(F)F)c3)nc12` [Compound 113, N-phenyl-2-(3-(trifluoromethyl)phenyl)imidazo[1,2-a]pyridine-8-carboxamide]: the EC1.5 entry is reported as “C (EC1.5>25 uM)” and the Emax was less than 200%.

As to `O=C(NC1CCCC1)c1cccn2cc(-c3cccc(OC(F)(F)F)c3)nc12` [Compound 114], the EC1.5 entry is reported as “C (EC1.5>25 uM)” and the Emax was less than 200%.

On to `O=C(Nc1nccs1)c1cccn2cc(-c3cccc(OC(F)(F)F)c3)nc12` [Compound 115, N-(thiazol-2-yl)-2-(3-(trifluoromethoxy)phenyl)imidazo[1,2-a]pyridine-8-carboxamide], for which the EC1.5 result is recorded as “B (EC1.5 1-25 uM)” and the Emax was less than 200%.

With `O=C(Nc1ccccc1)c1cccn2cc(-c3cccc(OC(F)(F)F)c3)nc12` [Compound 116], the EC1.5 entry is “C (EC1.5>25 uM)” and the Emax was less than 200%.

`O=C(Nc1cccn2cc(-c3cccc(C(F)(F)F)c3)nc12)c1cscn1` [Compound 117]: the EC1.5 entry is “B (EC1.5 1-25 uM)” and the Emax was less than 200%.

Take `O=C(Nc1cnccn1)c1cccn2cc(-c3cccc(C(F)(F)F)c3)nc12` [Compound 118]: the EC1.5 entry is “B (EC1.5 1-25 uM)” and the Emax was less than 200%.

In the case of `O=C(Nc1cccn2cc(-c3cccc(C(F)(F)F)c3)nc12)c1ccncc1` [Compound 119], the EC1.5 entry is given as “C (EC1.5>25 uM)” and the Emax is less than 200%.

Regarding `O=C(Nc1cccn2cc(-c3cccc(C(F)(F)F)c3)nc12)c1cccnc1` [Compound 120], the EC1.5 entry was “C (EC1.5>25 uM)” and the Emax was less than 200%.

`O=C(Nc1cccn2cc(-c3cccc(-c4ccccc4)c3)nc12)c1cscn1` [Compound 121]: the EC1.5 entry is “C (EC1.5>25 uM)” and the Emax is less than 200%.

`O=C(Nc1cccn2cc(-c3cccc(C(F)(F)F)c3)nc12)c1ncccn1` [Compound 122, N-(2-(3-(trifluoromethyl)phenyl)imidazo[1,2-a]pyridin-8-yl)pyrimidine-2-carboxamide]: the EC1.5 entry is given as “B (EC1.5 1-25 uM)” and the Emax was greater than 200%.

With `O=C(Nc1cccn2cc(-c3cccc(-c4ccccc4)c3)nc12)c1cnccn1` [Compound 123, N-(2-(biphenyl-3-yl)imidazo[1,2-a]pyridin-8-yl)pyrazine-2-carboxamide], the EC1.5 result is reported as “C (EC1.5>25 uM)” and the Emax was less than 200%.

As for `O=C(Nc1cccn2cc(-c3cccc(-c4ccccc4)c3)nc12)c1ccncc1` [Compound 124], the EC1.5 result is listed as “C (EC1.5>25 uM)” and the Emax is less than 200%.

For `O=C(Nc1cccn2cc(-c3cccc(-c4ccccc4)c3)nc12)c1ncccn1` [Compound 125], the EC1.5 result was “B (EC1.5 1-25 uM)” and the Emax is less than 200%.

For the compound `O=C(Nc1cccn2cc(-c3ccccc3)nc12)c1cccc(N2CCCC2)c1` [Compound 131], the EC1.5 result was “C (EC1.5>25 uM)” and the maximal response (Emax) was less than 200%.

In the case of `O=C(Nc1nc(CN2CCOCC2)cs1)c1cccn2cc(-c3cccc(C(F)(F)F)c3)nc12` [Compound 132, N-(4-(morpholinomethyl)thiazol-2-yl)-2-(3-(trifluoromethyl)phenyl)imidazo[1,2-a]pyridine-8-carboxamide], the EC1.5 entry is listed as “A (EC1.5<1.0 uM)” and the Emax was greater than 200%.

With `O=C(Nc1nc(CN2CCOCC2)cs1)c1cccn2cc(-c3cccc(OC(F)(F)F)c3)nc12` [Compound 133], the EC1.5 result is on record as “A (EC1.5<1.0 uM)” and the Emax was greater than 200%.

On to `O=C(Nc1ncc(CN2CCOCC2)s1)c1cccn2cc(-c3cccc(C(F)(F)F)c3)nc12` [Compound 134, N-(5-(morpholinomethyl)thiazol-2-yl)-2-(3-(trifluoromethyl)phenyl)imidazo[1,2-a]pyridine-8-carboxamide], for which the EC1.5 entry is on record as “A (EC1.5<1.0 uM)” and the Emax was greater than 200%.
